From a melting point compilation (Tetko et al.; mined from patent text by program, amines drawn as free bases though some values may be those of a salt)

Compound	melting point
CC1(O/N=C(\C(=O)O)c2csc(N)n2)CCCC1	182 to 183 °C
CCOP(=O)(CCN1CC(O)CNc2c1c(=O)c2=O)OCC (configuration not stated)	169 to 171 °C
OCC(O)CSC(=S)Nc1ccccn1 (configuration not stated)	98 °C
Nc1nonc1-c1nc2ccccc2n1CC(=O)c1ccccc1	202 to 204 °C
CCCCCS(=O)c1cccc(-c2nc(=O)c3ccccc3s2)n1 (configuration not stated)	146 to 147 °C
CCSc1nc(C)[nH]c1CO	153 °C
O=C(/C=C/c1cccc(S(=O)(=O)N2CCN(C/C=C/c3ccccc3)CC2)c1)NO	178 °C
O=c1c2c[nH]c3ccccc3n-2c(=O)n1-c1ccccc1	231 to 234 °C
C=CC(=O)OCCCCCCOc1ccc(C(=O)O)cc1	139 °C
CCOC(=O)c1ncn2c1CN=C(NCC(OC)OC)c1ccccc1-2	121 to 122 °C
CC12CCC(=O)C=C1CCC1C2CCC2(C)C(=CCC(=O)O)CCC12 (configuration not stated)	266 to 270 °C
CC1=NC=CC(=O)C1OCc1ccccc1 (configuration not stated)	162 to 163 °C
O=C(Nc1cccnc1)NC(NC(=O)c1ccccc1)C(Cl)(Cl)Cl (configuration not stated)	214 to 215 °C
CNC(=O)N(O)C(C)C#Cc1ccccc1 (configuration not stated)	136 to 137 °C
CCc1nnc(SCC2=C(C(=O)O)N3C(=O)C(NC(=O)Cc4csc(=O)s4)C3SC2)s1 (configuration not stated)	155 °C
CCCCNC(=O)C(C)(O[Si](C)(C)C(C)(C)C)c1ccc([N+](=O)[O-])cc1 (configuration not stated)	49 to 50 °C
O=c1c2c(Cc3cccs3)n[nH]c2c2cccnc2n1-c1ccccc1	282 to 284 °C
CC(=O)Nc1cc(C)nn1C	45 to 46 °C
CC1CC(C)CN(C(=O)c2ccc([N+](=O)[O-])cc2)C1 (configuration not stated)	120 to 125 °C
CCn1ncc2c(NCc3ccccc3)c3ccccc3nc21	130 to 132 °C
CO[C@H]1CC[C@H](N(C)C(=O)c2ccc3nonc3c2)CC1	143 to 144 °C
Cc1cc(C=CC#N)c(Cl)cc1F	90 to 91 °C
O=C1SCNc2sccc21	153 to 155 °C
CCOC(=O)/C=C/c1cnn(C)c1	43 to 44 °C
O=C(O)c1cn(C2CC2)c2cc(N3CCN(C(=O)OCCn4cccn4)CC3)c(F)cc2c1=O	205 to 208 °C
Cn1c(=O)[nH]c(=O)c2cccnc21	277 to 285 °C
COc1cc(O)c(C(=O)C=Cc2cccnc2)c(OC)c1	158 °C

Compound	melting point
C#CCN(C(=O)CN)C(=O)OC	77 to 80 °C
[N-]=[N+]=NCC1OC(n2c(Cl)c(C=O)c3cc(Cl)c(Cl)cc32)C(O)C1O (configuration not stated)	160 to 161 °C
Cc1c(F)c([N+](=O)[O-])cc([N+](=O)[O-])c1F	81 to 82 °C
CC(C)(COc1ccc2ncc(Cl)n2n1)CS(N)(=O)=O	197 to 200 °C
C#CCn1c(C(F)(F)F)c(C(C)O)sc1=O (racemic)	77 to 78 °C
Cc1ccc2nc(SCC(=O)O)oc2c1	144 to 146 °C
O=C(O)c1nc2cc(O)c(O)cc2nc1C(=O)O	> 300 °C
O=C1C=CC(OC2CCCC2)N1S(=O)(=O)c1ccccc1 (configuration not stated)	123 to 124 °C
Sc1nc2cnccc2[nH]1	> 320 °C
Cn1cc(C2=C(c3cn(CCCNCCN)c4ccccc34)C(=O)NC2=O)c2ccccc21	190 to 193 °C
Cc1cc(CO)cc(C)c1O	102 to 104 °C
CCOc1cc2ncc(C#N)c(NCc3ccc(Cl)c(Cl)c3)c2cc1OCC	163 to 165 °C
CC(CN1CC(=O)N(CN2CCOCC2)C(=O)C1)N1CC(=O)NC(=O)C1 (configuration not stated)	162 to 165 °C
CC(C)OC(=O)c1cc(-n2c(=O)cc(C(F)(F)F)[nH]c2=O)c(F)cc1Cl	127 to 129 °C
CN(C)c1cc2c(cc1O)CCC1C2CCC2(C)C(=O)CCC12 (configuration not stated)	160 to 161 °C
COc1cc(Nc2ncc(N)c(-c3ccccc3)n2)cc(OC)c1OC	149 to 150 °C
O=S1(=O)CCN(c2nc3c(-c4nc(C5CC5)no4)ncn3c3ccccc23)CC1	328 to 335 °C
FC(F)(F)c1ccc2c(C3=CCN(CCCOc4cccc5[nH]ccc45)CC3)c[nH]c2c1	190 to 195 °C
Nc1cc2nc(-c3ccccc3)nn2cc1F	> 250 °C
CC(C(=O)OC(C)(C)C)C(C)(O)c1ccc(Cl)nc1NC(=O)C(C)(C)C (configuration not stated)	146 to 148 °C
CCC(=O)OCC(CCn1cnc2cnc(N)nc21)COC(=O)CC	77.5 to 79 °C
C#CCOc1cc(-n2c(=O)cc(C(F)(F)F)n(C)c2=O)c(F)cc1Br	134 °C
CCCCCC(=O)OCCCOc1ccc(Nc2ccccc2)cc1	50 to 51 °C
CC1(C)CC(C)(c2ccc(O)cc2)c2cc(O)ccc21 (configuration not stated)	202 °C
CCCCCCCN1C(=O)C2CC(c3ccc([N+](=O)[O-])cc3)(C2)C1=O	91 to 92 °C
CCCn1c(=O)c2[nH]cnc2n(CCC)c1=O	201 to 205 °C
COc1cc2c(cc1OC)C(c1ccc(Cl)cc1)=NN=C(C)C2	188 to 198 °C

Other lines, results leading:

melting point	Compound
219 to 220 °C	COc1ccc(CC(C(N)=O)S(C)(=O)=O)cc1C(=O)NCc1ccc(C(F)(F)F)cc1 (configuration not stated)
149 to 150 °C	OCc1ccccc1NCc1cc2c(cc1O)CCO2
116 to 117 °C	COc1cccc(CC(=O)O)c1OCCCc1cc(OC(C)C)nn1Cc1ccc(C(F)(F)F)cc1
248 to 249 °C	COc1ccc(C(=O)O)c2ccc(C(F)(F)F)nc12
260 °C	NC(=O)c1cc(Cl)c(NC(=O)CCl)c(Cl)c1
105 to 106 °C	C[C@@H](n1cnn(-c2ccc(OC(F)(F)C(F)F)cc2)c1=O)[C@@]1(c2ccc(F)cc2F)CO1
105 to 106 °C	CCOC(=O)COc1ccc(CC2SC(=O)NC2=O)cc1 (configuration not stated)
162 to 163 °C	CC1(C)Cc2ccc(C#N)cc2N(C(=O)NCc2ccccc2)C1
217 to 218 °C	O=C(N1CCCC1)N1Cc2c(-c3ccc(F)cc3)ncn2-c2ccccc21
85 °C	CCOC(=O)C(=Cc1c(C)cc(C)cc1C)C(=O)CCl
182 to 183 °C	O=C(NCc1ccc(Cl)cc1)c1coc2ccc(C#CCO)cc2c1=O
85 to 87 °C	CCN(CC)CCOc1ccc(Nc2nccc(-c3ccncc3)n2)cc1
144 to 146 °C	C[C@@H](c1ccc(-c2ccn(CC(F)(F)F)c(=O)c2)cc1)N1CC[C@](CC(C)(C)O)(c2ccccc2)OC1=O
135 to 136 °C	Cc1ccc2nc(CN3CCN(c4ccc(Cl)cc4C#N)CC3)cn2c1
201 to 203 °C	COc1ccc(CNc2nc(OCc3ccccn3)ncc2C(=O)O)cc1Cl
194 to 196 °C	Cc1ccc(C(=O)NCc2ccc3c(c2)C(=O)N(C2CCC(=O)NC2=O)C3=O)cc1 (configuration not stated)
99 to 100 °C	CCCC(=O)c1cnc2c(OCCCN(C)C)cccc2c1Nc1ccc(F)cc1C
225 to 227 °C	Cc1cc(C)c2c(c1)c(-c1ccccc1Cl)c(NC(=O)Nc1ccc(F)cc1F)c(=O)n2C
183 to 185 °C	CNc1nc(-c2cccc(-c3ccccc3)c2)c2cc(OC)c(OC)cc2n1
302 to 304 °C	CCn1cc(C(=O)O)c(=O)c2cc(F)c(N3CCC(CNC(C)C)C3)nc21 (configuration not stated)
227 to 229 °C	CSc1ccc(-n2c(-c3ccncc3)nc(SC)c(C#N)c2=O)cc1
123 to 124 °C	CN(C)CC1(c2cccc(C(F)(F)F)c2)CCN(C(=O)CN2CCN(c3ccccc3)CC2)CC1
151 to 154 °C	COc1cc(Nc2c(C#N)cnc3cc(-c4ncccc4CN4CCOCC4)ccc23)c(Cl)cc1Cl
54 to 56 °C	CCN(CC)C(=O)n1ccc(S(=O)c2ccccc2Cl)n1 (configuration not stated)

melting point	Compound
185 to 186 °C	COC(=O)C1=C(C)NC(=O)N(C(=O)Oc2ccc([N+](=O)[O-])cc2)C1c1ccc(F)c(F)c1 (configuration not stated)
146 to 150 °C	CC(=O)OCc1ccc2oc(=O)c(C(=O)Oc3cc(Cl)cc(Cl)c3)cc2c1
40 to 44 °C	O=C(Nc1ccccn1)C(CC1CCCC1)c1ccc(C(F)(F)F)c(F)c1 (configuration not stated)
118 to 119 °C	CCOC(=O)c1cc(C)c2c(c1)c1ccccc1n2Cc1ccccc1
155 to 156 °C	Fc1cccc(F)c1C1=NC(c2ccc(C#Cc3ccc(Cl)cc3)cc2)CO1 (configuration not stated)
92 to 95 °C	NC(c1ccnc2cc(Cl)ccc12)C1CCCC(CNc2ccnc3cc(Cl)ccc23)C1 (configuration not stated)
113 to 115 °C	CC12CCC(C1)C1(C)Oc3ccc(C(O)c4ccc(CO)cc4)cc3C21C (configuration not stated)
101 to 103 °C	CC(C)(Oc1ccc(Cl)cc1)C(=O)Cn1cncn1
183 to 184 °C	CNC(=O)c1ccc(-c2coc3ccc(-c4nnc(C)o4)cc23)cc1F
131 to 134 °C	CC(C)C(=O)N1CCC(C2(c3cccc(-c4ccccc4)c3)N=C(N)N(C)C2=O)CC1 (configuration not stated)
134 to 135 °C	CCCOC1(OC)C=CC=C(N2CCC(c3noc4cc(F)ccc34)CC2)C1O (configuration not stated)
193 to 195 °C	O=C(CC(=O)c1ccc(Br)cc1)c1ccc(Br)cc1
160 to 161 °C	O=C(Nc1ccc(N2CCOCC2)c(C(F)(F)F)c1)c1ccc(F)c(OCc2cccnc2)c1
129 °C	CCOC(=O)c1c(O)c2cc(F)ccc2n(Cc2ccccc2)c1=O
179 to 183 °C	COC(=O)C1(NC(=O)Cc2c(C)ccc(-c3ccc(Cl)cc3)c2C)CCC(F)(F)CC1
211 to 216 °C	O=C(O)c1ccc2ccc(S)cc2c1
108 to 119 °C	CCOCCn1c(NC2CCN(CCC3(c4ccc(C)c(C)c4)CCN(C(=O)c4cc(OC)c(OC)c(OC)c4)C3)CC2)nc2ccccc21 (configuration not stated)
101 to 102 °C	CCCCCC1=C(c2ccc(F)cc2)C(=NO)CC1
208 to 210 °C	Cc1c(F)cc2c(=O)c(C(=O)O)cn(C3CC3)c2c1F
155 to 157 °C	CCN(CC)CC1CN(c2c(F)cc3c(=O)c(C(=O)O)cn(C4CC4)c3c2F)CCO1 (configuration not stated)
143 to 145 °C	C=Cc1c(NC(C)=O)cc(-c2ccc(Cl)c(OC)c2F)nc1C(=O)OC
215 to 216 °C	CC(Cl)(Cl)C(NC(=O)c1ccc(Br)cc1)NC(=NC#N)Nc1ccc(Cl)nc1 (configuration not stated)
127 °C	COc1ccc(-c2cnc3ncnn3c2NC2CCCC2)cc1
116 to 120 °C	CCOc1cc2c(cc1OC)C(c1ccc(C(=O)N3CCOCC3)cc1)=N[C@@H]1CCOC[C@H]21
